Results on 11 compounds are retold here after patent US11981680B2, “Substituted thienopyrroles as PAD4 inhibitors” (BRISTOL-MYERS SQUIBB COMPANY, priority 2018, dated 2024).

SMILES strings stand for the structures. pIC50: −log10 of the molar value.

Chain of human PAD4 (hPAD4) (Q9UM07 whole entry): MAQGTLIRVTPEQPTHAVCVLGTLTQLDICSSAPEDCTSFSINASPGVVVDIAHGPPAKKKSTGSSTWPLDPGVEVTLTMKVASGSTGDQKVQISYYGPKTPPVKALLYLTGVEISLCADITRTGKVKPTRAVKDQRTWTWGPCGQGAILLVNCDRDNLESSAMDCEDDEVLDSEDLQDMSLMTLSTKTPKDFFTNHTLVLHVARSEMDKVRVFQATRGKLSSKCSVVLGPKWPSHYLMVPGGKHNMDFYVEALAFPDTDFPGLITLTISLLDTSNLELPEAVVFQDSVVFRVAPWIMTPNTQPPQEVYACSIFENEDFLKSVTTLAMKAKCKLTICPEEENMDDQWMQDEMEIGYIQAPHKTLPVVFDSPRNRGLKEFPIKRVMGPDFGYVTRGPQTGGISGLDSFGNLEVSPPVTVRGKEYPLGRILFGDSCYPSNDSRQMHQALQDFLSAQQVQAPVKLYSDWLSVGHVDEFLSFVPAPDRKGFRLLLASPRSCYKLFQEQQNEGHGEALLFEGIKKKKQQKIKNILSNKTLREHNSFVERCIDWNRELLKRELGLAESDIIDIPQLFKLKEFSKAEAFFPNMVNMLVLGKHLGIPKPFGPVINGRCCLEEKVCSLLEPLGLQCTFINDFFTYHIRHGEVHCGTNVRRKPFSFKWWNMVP

For the assay, the target named is human PAD4 (hPAD4) (Homo sapiens (Human), UniProt Q9UM07). Kind of assay: RFMS Human PAD4 Functional Assay. The assay is classed as biochemical. The settings on record: rapid-fire mass spectrum (RFMS) assay; 5 nM hPAD4 enzyme, 250 μM BAEE, 30 min preincubation at 37° C. The method, then:
Compounds of the present invention were assayed as inhibitors of PAD4 using the assay protocol described below.
RFMS Human PAD4 Functional Assay:
Compounds were solubilized in 100% DMSO to achieve a10 mM compound concentration. Compound stock solutions were stored at RT. A series of dilutions were prepared in DMSO and mixed 8 times with 20 μL mixing volume. Final top concentration of compound in the assay is 50 μM. Final assay conditions were as follows: • Reaction volume: 26 μl • Assay buffer: 25 mM hepes, pH 7.5, 5 mM NaCl, 1 mM DTT, 0.2 mg/ml BSA, 0.01% CHAPS, 50 μM Calcium, and 5 μM TPEN • Final concentrations: 5 nM hPAD4 enzyme, 250 μM BAEE, and 0.5% DMSO • Total incubation time: 30 mins compound and enzyme preincubation at 37° C., 90 min enzyme/substrate reaction, 30 min reaction with phenyl glyoxal at 37° C. • Stop solution: 40 μl 5% TCA in ACN
0.13 μL of compound solution was added to 13 μL of 10 nM PAD4 in assay buffer. After 30 min 13 μl of 500 μM of BAEE was added in 25 mM hepes, pH 7.5, 5 mM NaCl, 1 mM DTT, 0.2 mg/ml BSA, 0.01% CHAPS, 50 μM Calcium, 5 μM TPEN was added and the reaction incubated for 90 min at 37° C. The enzymatic reaction was quenched by addition of 15 μl of 6.1N TCA, 100% Final Concentration is 20%, 35 μl of 8.5 mM phenyl glyoxal (final concentration 4 mM) is then added and the reaction is incubated for 30 min at 37° C.
After 30 minutes the plates are spun down to remove all precipitate. The enzyme reaction was quenched with an equal volume of methanol containing internal standard (modified citrulline). Samples were loaded onto the Rapid Fire RF300 system (Agilent) wherein they were first sipped for 1000 ms and then directly loaded to a C18 separations cartridge using a mixture of acetonitrile containing 0.01% formic acid for 3000 ms desalting. The flow rate of the mobile phase was 1.5 ml/min. Once the samples were eluted from the cartridge, a mobile phase of acetonitrile containing 0.01% formic acid was used to move the samples into the mass spectrometer for 4000 ms at a flow rate of 1.25 ml/min/Sciex API5500 triple quadrupole mass spectrometer (Applied Biosystems) equipped with ESI was used to analyze the peptidyl citrulline and internal standard ions.
MRM transition of product and internal standard were monitored at m/z 424.5 to 350.4 and m/z 293 to 247 respectively. The dwell time for each transition was set at 200 ms, and the ESI voltage was used at 5500 with a source temperature of 400° C. Extracted ion peaks for each transition were integrated using the Rapid Fire Integrator software. Peak area of analyte was normalized with internal standard.).
As usually defined, the pIC50 is −log10 of the IC50, conventionally taken in molar units. Higher therefore signals a low IC50. As for `COc1cc(C(=O)N2C[C@H]3CC[C@@H]2[C@@H]3N)cc2nc(-c3cc4scc(-c5cccs5)c4n3CC3CC3)n(C)c12` [Example 38, ((1R,4R,7R)-7-amino-2-azabicyclo[2.2.1]heptan-2-yl)(2-(4-(cyclopropylmethyl)-3-(thiophen-2-yl)-4H-thieno[3,2-b]pyrrol-5-yl)-7-methoxy-1-methyl-1H-benzo[d]imidazol-5-yl)methanone], the pIC50 was 7.00. With `COc1cc(C(=O)N2C[C@H]3CC[C@@H]2[C@@H]3N)cc2nc(-c3cc4scc(-c5cc[nH]n5)c4n3CC3CC3)n(C)c12` [Example 40, ((1R,4R,7R)-7-amino-2-azabicyclo[2.2.1]heptan-2-yl)(2-(4-(cyclopropylmethyl)-3-(1H-pyrazol-3-yl)-4H-thieno[3,2-b]pyrrol-5-yl)-7-methoxy-1-methyl-1H-benzo[d]imidazol-5-yl)methanone] the figure was 7.62; with `COc1cc(C(=O)N2C[C@H]3CC[C@@H]2[C@@H]3N)cc2nc(-c3cc4scc(-c5cnc(C#N)nc5)c4n3CC3CC3)n(C)c12` [Example 41, 5-(5-(5-((1R,4R,7R)-7-amino-2-azabicyclo[2.2.1]heptane-2-carbonyl)-7-methoxy-1-methyl-1H-benzo[d]imidazol-2-yl)-4-(cyclopropylmethyl)-4H-thieno[3,2-b]pyrrol-3-yl)pyrimidine-2-carbonitrile], 6.85; with `COc1cc(C(=O)N2C[C@H]3CC[C@@H]2[C@@H]3N)cc2nc(-c3cc4scc(-c5cnn(CC(F)(F)F)c5)c4n3CC3CC3)n(C)c12` [Example 42, ((1R,4R,7R)-7-amino-2-azabicyclo[2.2.1]heptan-2-yl)(2-(4-(cyclopropylmethyl)-3-(1-(2,2,2-trifluoroethyl)-1H-pyrazol-4-yl)-4H-thieno[3,2-b]pyrrol-5-yl)-7-methoxy-1-methyl-1H-benzo[d]imidazol-5-yl)methanone], 7.23. With `COc1cc(C(=O)N2C[C@H]3CC[C@@H]2[C@@H]3N)cc2nc(-c3cc4scc(-c5cnn(CC(F)F)c5)c4n3CC3CC3)n(C)c12` [Example 43, ((1R,4R,7R)-7-amino-2-azabicyclo[2.2.1]heptan-2-yl)(2-(4-(cyclopropylmethyl)-3-(1-(2,2-difluoroethyl)-1H-pyrazol-4-yl)-4H-thieno[3,2-b]pyrrol-5-yl)-7-methoxy-1-methyl-1H-benzo[d]imidazol-5-yl)methanone] the figure was 7.29; with `COc1cc(C(=O)N2C[C@H]3CC[C@@H]2[C@@H]3N)cc2nc(-c3cc4scc(-c5cccn5C)c4n3CC3CC3)n(C)c12` [Example 44, ((1R,4R,7R)-7-amino-2-azabicyclo[2.2.1]heptan-2-yl)(2-(4-(cyclopropylmethyl)-3-(1-methyl-1H-pyrrol-2-yl)-4H-thieno[3,2-b]pyrrol-5-yl)-7-methoxy-1-methyl-1H-benzo[d]imidazol-5-yl)methanone], 6.95; with `COc1cc(C(=O)N2C[C@H]3CC[C@@H]2[C@@H]3N)cc2nc(-c3cc4scc(-c5ccnn5C)c4n3CC3CC3)n(C)c12` [Example 45, ((1R,4R,7R)-7-amino-2-azabicyclo[2.2.1]heptan-2-yl)(2-(4-(cyclopropylmethyl)-3-(1-methyl-1H-pyrazol-5-yl)-4H-thieno[3,2-b]pyrrol-5-yl)-7-methoxy-1-methyl-1H-benzo[d]imidazol-5-yl)methanone], 7.28. As for `COc1cc(C(=O)N2C[C@H]3CC[C@@H]2[C@@H]3N)cc2nc(-c3cc4scc(-c5ccc[nH]5)c4n3CC3CC3)n(C)c12` [Example 46, ((1R,4R,7R)-7-amino-2-azabicyclo[2.2.1]heptan-2-yl)(2-(4-(cyclopropylmethyl)-3-(1H-pyrrol-2-yl)-4H-thieno[3,2-b]pyrrol-5-yl)-7-methoxy-1-methyl-1H-benzo[d]imidazol-5-yl)methanone], the figure is 6.76. Compound `COc1cc(C(=O)N2C[C@H]3CC[C@@H]2[C@@H]3N)cc2nc(-c3cc4scc(-c5ccncc5)c4n3CC3CC3)n(C)c12` [Example 47, ((1R,4R,7R)-7-amino-2-azabicyclo[2.2.1]heptan-2-yl)(2-(4-(cyclopropylmethyl)-3-(pyridin-4-yl)-4H-thieno[3,2-b]pyrrol-5-yl)-7-methoxy-1-methyl-1H-benzo[d]imidazol-5-yl)methanone] showed a negative logarithm of the IC50 (pIC50) of 6.83. As for `COc1cc(C(=O)N2C[C@H]3CC[C@@H]2[C@@H]3N)cc2nc(-c3cc4scc(-c5cnn(C6CCOCC6)c5)c4n3CC3CC3)n(C)c12` [Example 48, ((1R,4R,7R)-7-amino-2-azabicyclo[2.2.1]heptan-2-yl)(2-(4-(cyclopropylmethyl)-3-(1-(tetrahydro-2H-pyran-4-yl)-1H-pyrazol-4-yl)-4H-thieno[3,2-b]pyrrol-5-yl)-7-methoxy-1-methyl-1H-benzo[d]imidazol-5-yl)methanone], the figure is 7.54. As to `COc1cc(C(=O)N2C[C@H]3CC[C@@H]2[C@@H]3N)cc2nc(-c3cc4scc(Nc5ccncc5)c4n3CC3CC3)n(C)c12` [Example 49, ((1R,4R,7R)-7-Amino-2-azabicyclo[2.2.1]heptan-2-yl)(2-(4-(cyclopropylmethyl)-3-(pyridin-4-ylamino)-4H-thieno[3,2-b]pyrrol-5-yl)-7-methoxy-1-methyl-1H-benzo[d]imidazol-5-yl)methanone], the negative-log IC50 (pIC50) is 7.21. This pIC50 is 0.33 log units lower than that of the compound before.
